Results from ChEMBL document CHEMBL6178016, “Design, Synthesis, and Biological Evaluation of New PDE4 Inhibitors for the Treatment of Pressure Ulcers” (J Med Chem, 2025).
The source made the active and inactive calls. The calls are words filed in the database; no cut-off is given here.

Key:
Rattus norvegicus [1] = assay: Antiinflammatory activity against male Sprague-Dawley rat pressure ulcer model assessed as decrease in inflammatory cells in dermis administered as ointment by H and E staining based analysis; format: functional, organism-based
Rattus norvegicus [2] = assay: Antiinflammatory activity against male Sprague-Dawley rat pressure ulcer model assessed as appearance of thinner epidermal layer administered as ointment by Masson staining based analysis; format: functional, organism-based
Rattus norvegicus [3] = assay: Antiinflammatory activity against male Sprague-Dawley rat pressure ulcer model assessed as appearance of orderly arranged cells administered as ointment by H and E staining based analysis; format: functional, organism-based
Rattus norvegicus [4] = assay: Antiinflammatory activity against male Sprague-Dawley rat pressure ulcer model assessed as decrease in inflammatory cells in dermis administered as ointment by Masson staining based analysis; format: functional, organism-based
Rattus norvegicus [5] = assay: Antiinflammatory activity against male Sprague-Dawley rat pressure ulcer model assessed as wound healing rate administration as ointment measured after 7 days (reference value: 70%); format: functional; details: time 7 day
Rattus norvegicus [6] = assay: Antiinflammatory activity against male Sprague-Dawley rat pressure ulcer model assessed as appearance of thinner epidermal layer administered as ointment by H and E staining based analysis; format: functional, organism-based
Rattus norvegicus [7] = assay: Antiinflammatory activity against male Sprague-Dawley rat pressure ulcer model assessed as appearance of orderly arranged cells administered as ointment by Masson staining based analysis; format: functional, organism-based
Rattus norvegicus [8] = assay: Antiinflammatory activity against male Sprague-Dawley rat pressure ulcer model assessed as increase in number of fibroblasts administered as ointment by H and E staining based analysis; format: functional, organism-based
Rattus norvegicus [9] = assay: Antiinflammatory activity against male Sprague-Dawley rat pressure ulcer model assessed as increase in number of fibroblasts administered as ointment by Masson staining based analysis; format: functional, organism-based
Rattus norvegicus [10] = assay: Antiinflammatory activity against male Sprague-Dawley rat pressure ulcer model assessed as reduction in IL6 mRNA expression in skin administered as ointment by qRT-PCR analysis; format: functional, organism-based
Rattus norvegicus [11] = assay: Antiinflammatory activity against male Sprague-Dawley rat pressure ulcer model assessed as reduction in TNF-alpha mRNA expression in skin administered as ointment by qRT-PCR analysis; format: functional, organism-based
[12] = molecular target: T1, 3',5'-cyclic-AMP phosphodiesterase 4D (Homo sapiens, UniProt Q08499); assay: Inhibition of PDE4D (unknown origin) at 1 uM relative to control
T1 sequence (Q08499 whole entry): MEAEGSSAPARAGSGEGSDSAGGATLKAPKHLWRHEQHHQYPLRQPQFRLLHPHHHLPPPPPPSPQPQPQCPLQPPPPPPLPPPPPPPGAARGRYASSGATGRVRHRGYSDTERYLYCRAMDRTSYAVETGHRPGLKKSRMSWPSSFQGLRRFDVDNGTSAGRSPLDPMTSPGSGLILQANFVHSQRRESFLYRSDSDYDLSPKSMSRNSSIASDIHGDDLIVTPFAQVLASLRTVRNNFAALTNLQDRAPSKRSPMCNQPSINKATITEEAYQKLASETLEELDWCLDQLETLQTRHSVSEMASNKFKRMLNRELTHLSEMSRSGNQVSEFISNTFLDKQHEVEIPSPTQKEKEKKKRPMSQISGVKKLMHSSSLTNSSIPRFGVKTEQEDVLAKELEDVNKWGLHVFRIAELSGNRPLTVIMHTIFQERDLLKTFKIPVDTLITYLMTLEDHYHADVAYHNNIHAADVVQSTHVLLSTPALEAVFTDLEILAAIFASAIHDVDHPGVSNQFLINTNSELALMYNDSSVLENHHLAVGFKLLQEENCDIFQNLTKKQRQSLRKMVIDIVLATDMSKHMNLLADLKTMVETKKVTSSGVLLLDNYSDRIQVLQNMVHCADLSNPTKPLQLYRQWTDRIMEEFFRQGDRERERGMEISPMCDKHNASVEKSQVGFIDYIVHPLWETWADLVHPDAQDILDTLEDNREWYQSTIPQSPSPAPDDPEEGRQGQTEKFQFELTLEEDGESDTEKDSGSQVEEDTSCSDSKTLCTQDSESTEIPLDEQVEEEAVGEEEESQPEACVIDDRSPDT

RAW264.7 [13] = assay: Cytotoxicity against mouse RAW264.7 cells at 10 uM measured after 24 hrs by CCK-8 method; format: functional, cell-based
RAW264.7 [14] = assay: Antiinflammatory activity against mouse RAW264.7 cells assessed as inhibition of LPS-induced NO release preincubated for 2 hrs followed by LPS stimulation and measured after 4 hrs by RT-PCR analysis; format: functional, cell-based
RAW264.7 [15] = assay: Antiinflammatory activity against mouse RAW264.7 cells assessed as inhibition of LPS-induced TNF-alpha release preincubated for 2 hrs followed by LPS stimulation and measured after 4 hrs by RT-PCR analysis; format: functional, cell-based
RAW264.7 [16] = assay: Cytotoxicity against mouse RAW264.7 cells measured after 24 hrs by CCK-8 method; format: functional
[17] = molecular target: T1, 3',5'-cyclic-AMP phosphodiesterase 4D; assay: Inhibition of PDE4D (unknown origin)
Enterococcus faecium = assay: Antibacterial activity against Enterococcus faecium BNCC358275 assessed as reduction in bacterial colonies growth at 512 ug/ml measured after 24 hrs by agar plate method; format: functional, organism-based; details: dose 512.0 µg/ml
Enterococcus faecalis = assay: Antibacterial activity against Enterococcus faecalis BNCC296862 assessed as reduction in bacterial colonies growth at 512 ug/ml measured after 24 hrs by agar plate method; format: functional, organism-based; details: dose 512.0 µg/ml

| SMILES | inhibition [12] [%] | Activity (RAW264.7 [13]) | other results |
| --- | --- | --- | --- |
| O=C(Nc1c(Cl)cncc1Cl)c1ccc(OC(F)F)c(OCC2CC2)c1 [ROFLUMILAST] |  |  | Activity (Rattus norvegicus [1]): Active; Activity (Rattus norvegicus [2]): Active; Activity (Rattus norvegicus [3]): Active; Activity (Rattus norvegicus [4]): Active; Activity (Rattus norvegicus [5]): 81%; Activity (Rattus norvegicus [6]): Active; Activity (Rattus norvegicus [7]): Active; Activity (Rattus norvegicus [8]): Active; Activity (Rattus norvegicus [9]): Active; Activity (Rattus norvegicus [10]): Active; Activity (Rattus norvegicus [11]): Active |
| Cn1c(=O)c2c(ncn2CCC(=O)NNC(=O)c2c[nH]c(-c3ccc(OC(F)F)c(OC(F)F)c3)n2)n(C)c1=O | 82.1 | inactive |  |
| Cn1c(=O)c2c(nc(NCc3ccccc3)n2CCCC(=O)NNC(=O)c2cc3nccc(-c4ccc(OC(F)F)c(OCC5CC5)c4)n3n2)n(C)c1=O | 43 | inactive |  |
| Cn1c(=O)c2c(ncn2CCCC(=O)NNC(=O)c2cc3nccc(-c4ccc(OC(F)F)c(OCC5CC5)c4)n3n2)n(C)c1=O | 95.6 | inactive |  |
| COc1ccc(C2CNC(=O)C2)cc1OC1CCCC1 (stereo not given) [ROLIPRAM] |  |  | IC50 (RAW264.7 [14]): > 60000 nM; IC50 (RAW264.7 [15]): 39.9 µM; CC50 (RAW264.7 [16]): > 60 µM |
| Cn1c(=O)c2c(nc(NCc3ccccc3)n2CCCC(=O)NNC(=O)c2csc(-c3ccc(OC(F)F)c(OCC4CC4)c3)n2)n(C)c1=O | 89.9 | inactive |  |
| Cn1c(=O)c2c(nc(Br)n2CCCC(=O)NNC(=O)c2cc3nccc(-c4ccc(OC(F)F)c(OCC5CC5)c4)n3n2)n(C)c1=O | 94.7 | inactive | IC50 [17]: 276 nM |
| CN[C@H](CC(C)C)C(=O)N[C@H]1C(=O)N[C@@H](CC(N)=O)C(=O)N[C@H]2C(=O)N[C@H]3C(=O)N[C@H](C(=O)N[C@H](C(=O)O)c4cc(O)cc(O)c4-c4cc3ccc4O)[C@H](O)c3ccc(c(Cl)c3)Oc3cc2cc(c3O[C@@H]2O[C@H](CO)[C@@H](O)[C@H](O)[C@H]2O[C@H]2C[C@](C)(N)[C@H](O)[C@H](C)O2)Oc2ccc(cc2Cl)[C@H]1O |  |  | Activity (Enterococcus faecium): Active; Activity (Enterococcus faecalis): Active |
| Cn1c(=O)c2c(ncn2CCC(=O)NNC(=O)c2cnn3c(-c4ccc(OC(F)F)c(OCC5CC5)c4)ccnc23)n(C)c1=O | 38.8 | inactive |  |
| Cn1c(=O)c2c(ncn2CCCC(=O)NNC(=O)c2coc(-c3ccc(OC(F)F)c(OCC4CC4)c3)n2)n(C)c1=O | 92.4 | inactive |  |
| Cn1c(=O)c2c(nc(NCc3ccccc3)n2CCCC(=O)NNC(=O)c2coc(-c3ccc(OC(F)F)c(OCC4CC4)c3)n2)n(C)c1=O | 85.5 | inactive |  |
| Cn1c(=O)c2c(ncn2CCC(=O)NNC(=O)c2cccc3[nH]c(-c4ccc(OC(F)F)c(OC(F)F)c4)nc23)n(C)c1=O | 92.6 | inactive | IC50 [17]: 29 nM |
| Cn1c(=O)c2c(nc(NCc3ccccc3)n2CCCC(=O)NNC(=O)c2cccc3[nH]c(-c4ccc(OC(F)F)c(OC(F)F)c4)nc23)n(C)c1=O | 92.4 | inactive |  |
| Cn1c(=O)c2c(ncn2CCC(=O)NNC(=O)c2csc(-c3ccc(OC(F)F)c(OCC4CC4)c3)n2)n(C)c1=O | 87.5 | inactive |  |
| Cn1c(=O)c2c(nc(Br)n2CCCC(=O)NNC(=O)c2csc(-c3ccc(OC(F)F)c(OCC4CC4)c3)n2)n(C)c1=O | 97.2 | inactive |  |
| Cn1c(=O)c2c(ncn2CCC(=O)NNC(=O)c2c[nH]c(-c3ccc(OC(F)F)c(OCC4CC4)c3)n2)n(C)c1=O | 96.4 | inactive |  |
| Cn1c(=O)c2c(ncn2CCCC(=O)NNC(=O)c2cccc3[nH]c(-c4ccc(OC(F)F)c(OC(F)F)c4)nc23)n(C)c1=O | 97.9 | inactive | IC50 (RAW264.7 [14]): 2180 nM; IC50 [17]: 41 nM; IC50 (RAW264.7 [15]): > 60 µM; CC50 (RAW264.7 [16]): 76.8 µM |
| Cn1c(=O)c2c(ncn2CCC(=O)NNC(=O)c2cccc3[nH]c(-c4ccc(OC(F)F)c(OCC5CC5)c4)nc23)n(C)c1=O | 96.9 | inactive |  |
| Cn1c(=O)c2c(ncn2CCC(=O)NNC(=O)c2coc(-c3ccc(OC(F)F)c(OCC4CC4)c3)n2)n(C)c1=O | 63 | inactive |  |
| Cn1c(=O)c2c(nc(Br)n2CCCC(=O)NNC(=O)c2coc(-c3ccc(OC(F)F)c(OCC4CC4)c3)n2)n(C)c1=O | 85.3 | inactive |  |
| Cn1c(=O)c2c(nc(Br)n2CCCC(=O)NNC(=O)c2cccc3[nH]c(-c4ccc(OC(F)F)c(OC(F)F)c4)nc23)n(C)c1=O | 96.8 | inactive |  |
| Cn1c(=O)c2c(nc(NCc3ccccc3)n2CCCC(=O)NNC(=O)c2cnn3c(-c4ccc(OC(F)F)c(OCC5CC5)c4)ccnc23)n(C)c1=O | 30.3 | inactive |  |
| Cn1c(=O)c2c(ncn2CCCC(=O)NNC(=O)c2cccc3[nH]c(-c4ccc(OC(F)F)c(OCC5CC5)c4)nc23)n(C)c1=O | 96.8 | inactive |  |
| Cn1c(=O)c2c(ncn2CCCC(=O)NNC(=O)c2csc(-c3ccc(OC(F)F)c(OCC4CC4)c3)n2)n(C)c1=O | 98.4 | inactive |  |
| Cn1c(=O)c2c(nc(Br)n2CCCC(=O)NNC(=O)c2cccc3[nH]c(-c4ccc(OC(F)F)c(OCC5CC5)c4)nc23)n(C)c1=O | 99.2 | inactive |  |
| Cn1c(=O)c2c(ncn2CCCC(=O)NNC(=O)c2cnn3c(-c4ccc(OC(F)F)c(OCC5CC5)c4)ccnc23)n(C)c1=O | 85.7 | inactive |  |
| Cn1c(=O)c2c(nc(NCc3ccccc3)n2CCCC(=O)NNC(=O)c2cccc3[nH]c(-c4ccc(OC(F)F)c(OCC5CC5)c4)nc23)n(C)c1=O | 85.7 | inactive |  |
